Source: US20160008380A1, “TARGETING GLUTAMINE METABOLISM IN BRAIN TUMORS” (THE JOHNS HOPKINS UNIVERSITY, priority 2013, published 2016)
Entries after “also recorded” stand apart in the source; their conditions may differ.

What was measured:
[1] = administered orally at therapeutically effective levels; cited from earlier work
D425Med [2] = test: Cleaved caspase-3 immunofluorescence (apoptosis); format: cell-based, human; settings: n=3, p<0.05
Source text: (§1) FIG. 11: Medulloblastoma cell lines expressing c-MYC and glutaminase (GLS) are sensitive to inhibitors of glutamine metabolism. c-MYC levels positively correlate with GLS levels in D425Med and D283Med (A) as indicated by western blot. The growth of D283Med (B) and D425Med (C) is inhibited when treated with DON or Acivicin as measured by MTS assay. […] Cells were fixed and stained with an anti-cleaved caspase-3 antibody followed by a Cy-3 conjugated secondary and a DAPI counterstain. Multiple images were taken of each treatment and Cy3 positive cells were counted using Adobe Photoshop. Representative images are in D. Acivicin and DON treatment cause an increase the in sub-G1 (apoptotic) population of D425Med (E) and D283Med (F) as measured by flow cytometry.

[3] = test system: hindbrain derived neurospheres transduced with oncogenes not including MYC; test: BrdU proliferation assay, PNET models; format: cell-based, human; settings: 10 uM DON, no MYC
Method: (§2) FIG. 10 A: Acivicin suppresses the growth of MYC containing human neural stem cell PNET models. Graph comparing percent BrdU positivity in mock treated (blue) and with 10 uM acivicin (red) treated cells. […] FIG. 10 B: Acivicin suppresses the growth of MYC containing human neural stem cell PNET models. The graph compares percent BrdU positivity in mock treated (blue) and with 10 uM DON (red) treated cells.
(§3) For measurement of proliferation, cells were treated with the indicated drug for 18 hours and were then pulsed with bromo-deoxyuridine for an additional 6 hours. Cells were triturated to single cells and then cytospun onto microscope slides. After washing cells once with PBS, they were fixed with 4% paraformaldehyde for 15 minutes, permeabilized with 0.1% Triton/PBS, denatured with 0.1N HCl for 15 minutes, then blocked with 5% normal goat serum/PBST or 5% BSA/PBST, and incubated with anti-BrdU (Sigma) antibody at 37 degrees for one hour. After washing three times with PBST, cells were incubated for 45 minutes in the dark with the appropriate Cy-2 or Cy-3 conjugated secondary antibody (Jackson Immunoresearch). […] Multiple high power fields were photographed at random, and the percent BrdU positivity was calculated by counting first BrdU positive cells and then DAPI positive cells and dividing the former by the latter. […]

D283Med = test: Sub-G1 (apoptotic) population by flow cytometry; format: cell-based, human
Source text: as §1

D425Med [4] = test: Sub-G1 (apoptotic) population by flow cytometry; format: cell-based, human
Source text: as §1

[5] = test system: D425 (D425Med, high-MYC medulloblastoma cell line); test: MTS cell growth assay; format: cell-based, human; settings: for growth as measured by MTS assay: D425 / D425Med, increasing concentrations
Method: (§4) FIG. 4: Growth as measured by MTS assay after 3 days of acivicin treatment at increasing doses. The low-MYC cell line, UW228 (FIG. 4A), is not sensitive to treatment with acivicin. The high-MYC cell lines, D283 (FIG. 4B) and D425 (FIG. 4C) are sensitive to acivicin, showing an inhibition of growth of approximately 50% or more at a concentration of 10 uM acivicin.
as §1
(§5) For relative cell growth assays, cells were seeded in 96-well plates in triplicate at densities of 5000 cells per well. Cell proliferation was monitored at the indicated number of days using the colorimetric CellTiter 96 MTS assay (Promega, Madison, Wis.).
(§6) We tested this hypothesis using UW228 (low MYC) and D283 and D425 (high MYC) medulloblastoma cell lines.

[6] = test system: D283 (D283Med, high-MYC medulloblastoma cell line); test: MTS cell growth assay; format: cell-based, human; settings: for growth as measured by MTS assay: D283 / D283Med, increasing concentrations
Method: as §4, §1, §5, §6

[7] = test system: neural stem cell models of medulloblastoma; test: Cleaved caspase-3 staining (apoptosis); format: cell-based, human; settings: 72 h treatment, p<0.05
Method: (§7) Cells were treated with acivicin or DON for 72 h. The cells were then fixed and stained with an antibody for cleaved caspase-3, followed by a Cy-3 conjugated secondary and a DAPI counterstain. Multiple images were taken of each treatment and cleaved-caspase-3 positive cells counted using Adobe Photoshop. […] Control cells were unaffected by treatment. Representative images are seen in (B and D). Images colorized with Adobe Photoshop.

[8] = test system: Control cells (neural stem cells); test: Cleaved caspase-3 staining (apoptosis); format: cell-based, human; settings: 72 h treatment
Method: as §7

[9] = test system: MYC transduced hindbrain derived human neural stem cell PNET models; test: BrdU proliferation assay, PNET models; format: cell-based; settings: FIG. 10B
Method: as §2, §3

[10] = test system: KNS42 (low-MYC glioma cell line); test: MTS cell growth assay; format: cell-based; settings: KNS42, 3 days, same concentrations as SF188 and UW479
Method: FIG. 9: MTS assay showing sensitivity of high MYC SF188 and […] glioma cell lines and insensitivity of low-MYC KNS42 to glutamine metabolic inhibitors DON and acivicin. Cell growth was measured over 3 days at increasing concentrations of drug.
as §5

[11] = test system: UW228 (low-MYC medulloblastoma cell line); test: MTS cell growth assay; format: cell-based, human; settings: UW228, 3 days of treatment at increasing concentrations
Method: as §4, §5, §6

[12] = test system: UW228 cells engineered to express MYC (UW228-UWM13); test: MTS cell growth assay; format: cell-based, human; settings: 3 days of drug treatment
Method: Values show mean (n=3) and error bars indicated standard deviation. FIG. 5B: The percent decrease in optical density between no drug and 50 uM acivicin. Error bars indicate SEM. *P=0.00029.
as §5
We next investigated if increasing MYC and GLS expression in a low MYC cell line could confer sensitivity to glutamine anti-metabolites.

[13] = test system: Neurospheres transfected with MYC; test: Cell cycle analysis (sub 2N population, flow cytometry); format: cell-based, human; settings: 3 days of treatment, propidium iodide flow cytometry
Method: (§8) FIG. 7: Cell cycle analysis was performed using a Guava flow cytometer following 3 days of treatment in acivicin. Neurospheres transfected with MYC show an increase in the sub 2N population following 3 days of treatment with acivicin, indicating an increase in apoptosis after treatment.
(§9) We also asked this question using human neural stem cell models of aggressive brain tumors. We compared the sensitivity of human neural stem cells transduced with a package of oncogenes that contain MYC versus those that were transformed without using MYC.

[14] = test system: non-MYC transformed neurospheres; test: as above; format: cell-based, human; settings: 3 days of treatment, propidium iodide flow cytometry
Method: as §8, §9

[15] = test system: cortex derived neurospheres transduced with oncogenes not including MYC; test: BrdU proliferation assay, PNET models; format: cell-based, human; settings: 10 uM acivicin, no MYC
Method: as §2, §3

[16] = test system: human neural stem cells transformed without MYC (SV40 control); test: BrdU proliferation assay; format: cell-based
Method: (§10) FIG. 6: Suppression of proliferation of MYC-driven human neural stem cell models of medulloblastoma by acivicin. Two human neurosphere lines were treated with 10 uM acivicin for four days. On the fourth day, the spheres were pulsed with BrdU for 6 h. Following the pulse, the spheres were made single cells and fixed onto glass slides. Staining was performed using an anti-BrdU antibody followed by a secondary antibody conjugated to Cy3 and a DAPI counterstain. Images were taken at 400× (FIG. 6A, top panel). DAPI positive and BrdU positive (red) cells in the image were counted using Adobe Photoshop (FIG. 6A, bottom panel). An average of % positive BrdU cells was taken from three images. Error bars indicate SEM. *p=0.012.
(§11) FIG. 14: Acivicin decreases proliferation in neural stem cell models of MYC-driven medulloblastoma. Human neural stem cells derived from the developing cerebellum were transduced with lentiviral vectors coding for oncogenic elements associated with high-risk, MYC-driven medulloblastoma. SV40 was used as a control to immortalize the cells. The transduced neural stem cells were treated with acivicin for 72 h, and pulsed with bromodeoxyuridine for the final 6 hours of treatment. Cells were fixed and stained with an anti-BrdU antibody followed by a Cy-3 conjugated secondary and a DAPI counterstain. Multiple images were taken of each treatment and BrdU positive cells were counted using Adobe Photoshop. […] Representative images are in B.
(§12) For measurement of proliferation, cells were treated with the indicated drug for 18 hours and were then pulsed with bromo-deoxyuridine for an additional 6 hours. Cells were triturated to single cells and then cytospun onto microscope slides. After washing cells once with PBS, they were fixed with 4% paraformaldehyde for 15 minutes, permeabilized with 0.1% Triton/PBS, denatured with 0.1N HCl for 15 minutes, then blocked with 5% normal goat serum/PBST or 5% BSA/PBST, and incubated with anti-BrdU (Sigma) antibody at 37 degrees for one hour. After washing three times with PBST, cells were incubated for 45 minutes in the dark with the appropriate Cy-2 or Cy-3 conjugated secondary antibody (Jackson Immunoresearch). Cells were counterstained with DAPI and mounted with anti-fade (Vectastain). Multiple high power fields were photographed at random, and the percent BrdU positivity was calculated by counting first BrdU positive cells and then DAPI positive cells and dividing the former by the latter.

[17] = test system: MYC-driven human neural stem cell models of medulloblastoma (cerebellar neurospheres); test: BrdU proliferation assay; format: cell-based
Method: as §10, §11, §12

[18] = test system: MYC transduced cortex derived human neural stem cell PNET models; test: BrdU proliferation assay, PNET models; format: cell-based; settings: FIG. 10A
Method: as §2, §3

D283Med xenografts = test: D283Med orthotopic and flank xenografts in nude mice; format: in vivo; settings: IP 75 mg/kg acivicin 4 times a week, four weeks
Method: FIG. 13: Mice treated with Acivicin develop fewer and smaller flank tumors than untreated mice. Ten immunodeficient (nude) mice received orthotopic and flank xenografts of D283Med. Mice in the treatment group (n=5) were treated 4 times a week with an IP dose of 75 mg/kg of acivicin each time. Mice in the control group (n=5) received an IP injection of sterile PBS. After four weeks, all mice were sacrificed and brains and any flank tumors removed. 100% of the control group developed flank tumors, while only 40% of the treatment group developed flank tumors. The PBS treated mice also developed larger flank tumors (A, bars indicate mean tumor size, error bars SD).

[19] = 10 uM acivicin, four days, BrdU pulse 6 h

## [N-]=[N+]=CC(=O)CC[C@H](N)C(=O)O [DON, 6-Diazo-5-oxo-L-norleucine]
[1]
  gastrointestinal (GI) toxicity: results in gastrointestinal (GI) toxicity
D425Med [2]
  apoptosis (cleaved caspase-3 immunofluorescence): increase apoptosis
[3]
  reduction in proliferation: did not respond strongly; also recorded: slight reduction
D283Med
  sub-G1 (apoptotic) population: increase
D425Med [4]
  sub-G1 (apoptotic) population: increase
[5]
  growth as measured by MTS assay: suppressed; also recorded: inhibited
[6]
  growth as measured by MTS assay: suppressed; also recorded: inhibited
[7]
  apoptosis (cleaved-caspase-3 positive cells): significant increase in apoptosis
[8]
  apoptosis (cleaved-caspase-3 positive cells): unaffected
[9]
  sensitivity of MYC driven PNET models: sensitive
[10]
  reduction in growth: modest reduction
[11]
  growth as measured by MTS assay (sensitivity): relatively resistant

## N[C@H](C(=O)O)[C@@H]1CC(Cl)=NO1 [acivicin, (2S)-Amino[(5S)-3-chloro-4,5-dihydro-1,2-oxazol-5-yl]ethanoic acid]
[12]
  growth compared to parental UW228 cells (MTS): decreased growth
[13]
  sub 2N population (apoptosis): increased apoptosis; also recorded: increase
[14]
  sub 2N population (apoptosis): did not show an increase; also recorded: do not show any increase
D425Med [2]
  apoptosis (cleaved caspase-3 immunofluorescence): increase apoptosis
[15]
  reduction in proliferation: did not respond strongly; also recorded: modest reduction
D283Med
  sub-G1 (apoptotic) population: increase
D425Med [4]
  sub-G1 (apoptotic) population: increase
[5]
  growth as measured by MTS assay: suppressed
[5]; listed as Acivicin
  growth as measured by MTS assay: inhibited
[5]; Homo sapiens, D425 Med, 72 h, D425, 10 uM acivicin, 3 days
  inhibition at 10 µM: ≥ 50%
[6]
  growth as measured by MTS assay: suppressed
[6]; listed as Acivicin
  growth as measured by MTS assay: inhibited
[6]; Homo sapiens, 72 h, D283, 10 uM acivicin, 3 days
  inhibition at 10 µM: ≥ 50%
[7]
  apoptosis (cleaved-caspase-3 positive cells): significant increase in apoptosis
[8]
  apoptosis (cleaved-caspase-3 positive cells): unaffected
[16]; [19]
  change in proliferation (% BrdU positive cells): insensitive; also recorded: no change
[16]; SV40 control, acivicin 72 h, BrdU for the final 6 hours
  proliferation (BrdU positive cells): no change
[17]; [19]
  reduction of proliferation (% BrdU positive cells): ~30%
[17]; MYC-transformed human neural stem cells
  growth after treatment (FIG. 6): decreased growth
[17]; acivicin 72 h, BrdU for the final 6 hours
  proliferation (BrdU positive cells): significant decrease
[18]
  sensitivity of MYC driven PNET models: sensitive
D283Med xenografts; vs PBS, 75 mg/kg
  flank tumor size / tumor growth: markedly smaller tumors; also recorded: inhibits tumor growth
D283Med xenografts; control group 100%
  mice that developed flank tumors: 40%
[10]
  reduction in growth: modest reduction
[11]
  growth as measured by MTS assay (sensitivity): relatively resistant; also recorded: virtually no suppression of growth; also recorded: not sensitive
